Structures can show the parent of a compound that is named as a salt.

The test system of one experiment is Maltase. In words: Inhibition of maltase (α-glycosidase, maltose-cleaving activity). Type of experiment: biochemical, rabbit. As to conditions: for Inh. of Maltase: at 100 µM (Table 1 head). As to the method: […] In addition compounds 1 and 2 were screened at a dose of 1 mM. These compounds are described in Examples 6, 81 10, 11 and 12. […] Compounds 1, 2, 6 and 12 are novel compounds having glucitol stereochemistry. Compound 11 is likewise novel and it has the iditol stereochemistry.
(§1) The inhibition of maltase (sucrase) tests was carried out as recited hereinafter. Partially purified α-glycosidase was isolated from the rabbit's small intestine as described in the literature (B. L. Rhinehart et al. Life Sci. 1987, 41, 2325). The α-glycosidase activity was measured using […] as substrates. β-Glycosidase from almonds was obtained from Sigma (St. Louis), and β-glycosidase activity was measured using lactose as a substrate. The incubation mixture (200 μL) consisted of substrate (100 mM), enzyme, 100 mM NaCl, 0.1 mM Na2 EDTA and either 10 mM MOPS (for pH 7), 10 mM maleic acid (for pH 6), or 10 Mm acetate (for pH 5) as buffer (adjusted to their respective pH with NaOH). Compounds dissolved in dimethylsulfoxide were added (final concentration of dimethylsulfoxide in the assay was 1%). The assay was performed at 37 deg C. for 30 minutes and arrested by incubation for 3 min at 85 deg C. After centrifugation for 2 min at 10,000 g, the supernatant was collected and processed for glucose determination. Glucose was measured with the hexokinase method (kit obtained from Boehringer Mannheim) on an EPOS 5060 EPPENDORF autoanalyser.

The test system of the next experiment is HIV-1. In words: Anti-HIV-1 activity in MT-4 cells. The class given is cell-based. As to conditions: for HIV1/HIV2 Act. (HIV1): Table 1, MT-4 cells, viable cells after five days; for inhibited the growth of HIV-1: at high concentrations. On the procedure: Anti-HIV-1 activity was tested in MT-4 cells as described previously (Pauwels et al. J. Virol Methods 1987, 11, 171). The cells were either infected with HIV-1 or mock infected and incubated in the presence of the test compounds. The number of viable cells was then determined after five days (Pauwels et al. J. Virol Methods 1988, 20, 309).

A further experiment relates to glycosidase. In words: Glycosidase inhibition, overall statement. Type of experiment: biochemical. On the procedure: Compounds 6, 11 and 12 in Table 1 were screened at a single dose (100 micromolar) against sucrase and maltase, two glycosidase enzymes. In addition compounds 1 and 2 were screened at a dose of 1 mM. These compounds are described in Examples 6, 81 10, 11 and 12. […] Compounds 1, 2, 6 and 12 are novel compounds having glucitol stereochemistry. Compound 11 is likewise novel and it has the iditol stereochemistry.
as §1

A further experiment relates to β-Glycosidase. As to the kind of experiment: Inhibition of lactose activity (β-glycosidase). Type of experiment: biochemical, almonds. As to the method:
as §1

The next experiment concerns HIV2. In words: Anti-HIV-2 activity. Type of experiment: cell-based. As to conditions: Table 1.
The next experiment deals with T1, Sucrase (Oryctolagus cuniculus, UniProt P07768).
T1 construct: Partially purified α-glycosidase was isolated from the rabbit's small intestine; from tissue; host or cells: rabbit small intestine, partially purified
As to the kind of experiment: Inhibition of sucrase (α-glycosidase). Particulars: at 100 mM (Table 1 head). The class given is biochemical, rabbit. As to the method: […] In addition compounds 1 and 2 were screened at a dose of 1 mM. These compounds are described in Examples 6, 81 10, 11 and 12.
as §1

T1 sequence (P07768 1008-1827 limits assumed): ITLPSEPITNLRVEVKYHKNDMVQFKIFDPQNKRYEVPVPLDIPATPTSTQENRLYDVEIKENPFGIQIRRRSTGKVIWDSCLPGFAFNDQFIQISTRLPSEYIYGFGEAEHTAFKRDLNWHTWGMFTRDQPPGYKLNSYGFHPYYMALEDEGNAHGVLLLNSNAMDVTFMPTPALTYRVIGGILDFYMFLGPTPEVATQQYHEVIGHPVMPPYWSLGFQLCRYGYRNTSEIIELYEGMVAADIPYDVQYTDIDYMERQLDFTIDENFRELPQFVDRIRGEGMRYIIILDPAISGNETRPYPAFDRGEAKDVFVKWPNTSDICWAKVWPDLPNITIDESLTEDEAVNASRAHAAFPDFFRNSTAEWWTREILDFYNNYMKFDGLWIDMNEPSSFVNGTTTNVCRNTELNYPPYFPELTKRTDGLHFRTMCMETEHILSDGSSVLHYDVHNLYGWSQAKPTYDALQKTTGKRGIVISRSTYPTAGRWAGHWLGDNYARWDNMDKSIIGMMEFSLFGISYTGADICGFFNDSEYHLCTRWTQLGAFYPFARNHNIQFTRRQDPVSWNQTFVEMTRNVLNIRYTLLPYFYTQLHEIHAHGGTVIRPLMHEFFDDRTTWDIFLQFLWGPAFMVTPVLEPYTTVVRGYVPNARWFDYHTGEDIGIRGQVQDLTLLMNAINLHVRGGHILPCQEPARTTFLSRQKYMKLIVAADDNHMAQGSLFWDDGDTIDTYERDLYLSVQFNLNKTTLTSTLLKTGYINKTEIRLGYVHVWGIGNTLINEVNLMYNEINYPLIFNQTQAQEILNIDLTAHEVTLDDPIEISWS
T1 sequence (P07768 2-1007 partner limits assumed): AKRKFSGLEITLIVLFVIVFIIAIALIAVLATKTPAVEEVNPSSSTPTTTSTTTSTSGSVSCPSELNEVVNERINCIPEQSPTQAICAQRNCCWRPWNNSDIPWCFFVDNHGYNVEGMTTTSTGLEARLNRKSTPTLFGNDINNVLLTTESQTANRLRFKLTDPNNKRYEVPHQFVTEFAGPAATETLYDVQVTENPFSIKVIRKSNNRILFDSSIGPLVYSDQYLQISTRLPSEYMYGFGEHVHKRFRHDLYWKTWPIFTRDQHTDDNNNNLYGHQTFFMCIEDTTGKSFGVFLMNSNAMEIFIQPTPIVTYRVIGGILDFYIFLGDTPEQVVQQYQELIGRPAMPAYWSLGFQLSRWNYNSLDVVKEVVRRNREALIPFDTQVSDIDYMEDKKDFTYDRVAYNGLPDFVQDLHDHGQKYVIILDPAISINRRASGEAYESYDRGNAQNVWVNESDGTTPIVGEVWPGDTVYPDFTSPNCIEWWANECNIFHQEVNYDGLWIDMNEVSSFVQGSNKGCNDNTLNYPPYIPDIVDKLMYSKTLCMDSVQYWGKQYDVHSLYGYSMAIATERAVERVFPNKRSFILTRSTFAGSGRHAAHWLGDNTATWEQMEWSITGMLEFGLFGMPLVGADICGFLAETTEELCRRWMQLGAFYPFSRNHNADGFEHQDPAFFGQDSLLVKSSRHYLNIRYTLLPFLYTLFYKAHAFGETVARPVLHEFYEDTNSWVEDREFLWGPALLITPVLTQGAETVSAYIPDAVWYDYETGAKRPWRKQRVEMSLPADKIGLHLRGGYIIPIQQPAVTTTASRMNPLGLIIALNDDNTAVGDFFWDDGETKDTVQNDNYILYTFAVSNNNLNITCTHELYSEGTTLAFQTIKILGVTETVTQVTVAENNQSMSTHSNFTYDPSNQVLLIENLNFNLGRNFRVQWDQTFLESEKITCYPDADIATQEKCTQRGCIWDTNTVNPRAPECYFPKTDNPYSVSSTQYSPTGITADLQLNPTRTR

`OC[C@@H]1[C@@H](O)[C@H](O)[C@H](CO)N1c1ccc(F)cc1` [Compound 9, N-(4-Fluorophenyl)-2,5-anhydro-2,5-imino-D-glucitol]: the “Inh. of Maltase” value with Maltase was found to be 0%. Also, the “HIV1/HIV2 Act. (HIV1)” value in the experiment with HIV-1 is given as “No anti-HIV1 act”.
On the same counts, the results for `OC[C@@H]1[C@@H](O)[C@H](O)[C@@H](CO)N1C(c1ccccc1)c1ccccc1` [Compound 3, N-Benzhydryl-2,5-anhydro-2,5-imino-D-mannitol] are 0% and “No anti-HIV1 act”.
As to `OC[C@H]1[C@@H](O)[C@H](O)[C@H](CO)N1c1ccc(F)cc1` [Compound 11], the “Inh. of Maltase” value in the experiment with Maltase was found to be 19%. Besides, in the experiment with glycosidase, the “glycosidase inhibition (in words)” value was “glycosidase inhibitors”. The “HIV1/HIV2 Act. (HIV1)” value in the experiment with HIV-1 was “No anti-HIV1 act”.
`OCC1[C@@H](O)[C@H](O)C(CO)N1CCc1ccc(F)cc1` (some centres unmarked) [Compound 17]: the “HIV1/HIV2 Act. (HIV1)” value in the experiment with HIV-1 is on record as “No anti-HIV1 act”.
As for `OCC1[C@@H](O)[C@H](O)C(CO)N1CCCOc1ccc(F)cc1` (some centres unmarked) [Compound 8], the “Inh. of Maltase” value with Maltase came to 0%. Moreover, the “HIV1/HIV2 Act. (HIV1)” value in the experiment with HIV-1 is reported as “No anti-HIV1 act”.
With `OC[C@@H]1N[C@H](CO)[C@@H](O)[C@@H]1O` [Compound 2, 2,5-Anhydro-2,5-imino-D-glucitol], the “Inh. of Maltase” value in the experiment with Maltase is 0%. Moreover, the “glycosidase inhibition (in words)” value in the experiment with glycosidase is reported as “glycosidase inhibitors”. In addition, in the experiment with β-Glycosidase (at 10^-3 M, pH 5 (footnote 2)), the “inhibition of lactose activity” value was found to be 44%. For the same compound, the “HIV1/HIV2 Act. (HIV1)” value with HIV-1 was “No anti-HIV1 act”.
Consider `CCCCN1[C@H](CO)[C@@H](O)[C@H](O)[C@@H]1CO` [Compound 16], for which the “Inh. of Maltase” value with Maltase came out at 0%.
As for “N-Stearyl-2,5-anhydro-2,5-imino-D-glucitol [Compound 6]”, in the experiment on Maltase, the “Inh. of Maltase” value was 1%. The “HIV1/HIV2 Act. (HIV2)” value in the experiment with HIV2 is “Weak anti-HIV1 and HIV2”. Besides, the “glycosidase inhibition (in words)” value with glycosidase is on record as “glycosidase inhibitors”. For the same compound, the “Inh. of (Sucrase)” value on Sucrase is 6%. Moreover, in the experiment on HIV-1, the “HIV1/HIV2 Act. (HIV1)” value was “Weak anti-HIV1 and HIV2”; the “inhibited the growth of HIV-1” value was “inhibited the growth of HIV-1 at high concentrations”.
On to `CCOC(=O)N1CCC(N2C(CO)[C@@H](O)[C@H](O)C2CO)CC1` (some centres unmarked) [Compound 13], for which the “Inh. of Maltase” value in the experiment on Maltase came out at 0%. Moreover, the “HIV1/HIV2 Act. (HIV1)” value in the experiment on HIV-1 is “No anti-HIV1 act”.
For `OC[C@@H]1[C@@H](O)[C@H](O)[C@@H](CO)N1c1ccc(F)cc1` [Compound 10], in that order: 0% and “No anti-HIV1 act”.
Turning to `OCCCN1C(CO)[C@@H](O)[C@H](O)C1CO` (some centres unmarked) [Compound 15], in the experiment with Maltase, the “Inh. of Maltase” value is recorded as 0%.
As for `OC[C@@H]1[C@@H](O)[C@H](O)[C@H](CO)N1CCCC(c1ccc(F)cc1)c1ccc(F)cc1` [Compound 12, N-[4,4-bis(4-Fluorophenyl)butyl]-2,5-anhydro-2,5-imino-D-glucitol tosylate], in the experiment on Maltase, the “Inh. of Maltase” value amounted to 20%. For the same compound, the “glycosidase inhibition (in words)” value with glycosidase is “glycosidase inhibitors”. Moreover, in the experiment with HIV-1, the “HIV1/HIV2 Act. (HIV1)” value was “Weak anti-HIV1 act” and the “inhibited the growth of HIV-1” value was “inhibited the growth of HIV-1 at high concentrations”.
`COC1CN(CCCOc2ccc(F)cc2)CCC1N1C(CO)[C@@H](O)[C@H](O)[C@H]1CO` (some centres unmarked) [Compound 22]: in the experiment on Maltase, the “Inh. of Maltase” value is given as 0%. The “HIV1/HIV2 Act. (HIV1)” value in the experiment on HIV-1 is “No anti-HIV1 act”.
`OC[C@@H]1[C@@H](O)[C@H](O)[C@H](CO)N1C(c1ccccc1)c1ccccc1` [Compound 1]: the “Inh. of Maltase” value in the experiment with Maltase is recorded as 0%. The inhibition of maltase in the experiment on Maltase (at 10^-3 M (footnote 1)) was 40%. For the same compound, the “glycosidase inhibition (in words)” value in the experiment with glycosidase is reported as “glycosidase inhibitors”. In addition, in the experiment on β-Glycosidase (at 10^-4 M, pH 5 (footnote 1)), the “inhibition of lactose activity” value is listed as 58%. In addition, in the experiment on HIV-1, the “HIV1/HIV2 Act. (HIV1)” value is “Weak anti-HIV1 act” and the “inhibited the growth of HIV-1” value is listed as “inhibited the growth of HIV-1 at high concentrations”.

The values are drawn from US5290948A, “Process for producing polyhydroxylated piperidines and pyrrolidines and compounds thereof” (McNeilab, Inc., priority 1990, dated 1994).
